According to patent US20240158404A1, “MODULATORS OF ALPHA-1 ANTITRYPSIN” (Vertex Pharmaceuticals Incorporated, priority 2022, published 2024):

Molecular target: T1, AAT (Homo sapiens, UniProt P01009, E366K)
T1 construct: expressed in transfected cells; host or cells: NL20 human bronchial epithelial cells (NL20-SI cell line), with doxycycline added alongside the compounds
Assay: Compound Quality score (potency in AAT functional assay multiplied by unbound clearance)
Details: compound potency (EC50) x unbound clearance; class symbols
Excerpt: As used herein, the term “Compound Quality” refers to the potency of a compound multiplied (x) by the compound's unbound clearance as measured using the assays described in Example 6.
The terms “unbound clearance” refer to unbound intrinsic clearance (unbound CLint) in hepatocytes—the intrinsic clearance a drug would have in the absence of protein binding. Unbound CLint=CLint,hep/fu,hep, where CLint,hep is intrinsic clearance in hepatocytes and fu,hep is unbound fraction in hepatocytes.
A key consideration for the selection of compounds suitable for clinical development is the projection of human dose as described in Equations 1-3. Two key parameters that comprise the dose equation are the unbound clearance of a compound and the plasma efficacious exposure (also referred to herein as compound potency). Together these parameters are known to one skilled in the art as a measurement of Compound Quality and suitability for advancement into clinical development. Thus, when evaluating AAT modulator compounds, one needs to consider both the potency and unbound clearance parameters (i.e., Compound Quality). The relationship between these two parameters can be challenging to predict.
The values provided in the table below are calculated by multiplying the EC50 of each of the compounds by the result from the clearance assay procedures described in Section C above and rounded to two significant figures. In the table below, the following meanings apply for Compound Quality (i.e., compound potency x unbound clearance) values: “++++” means ≤0.2; “+++” means >0.20 and ≤0.30; “++” means >0.30 and ≤0.40; “+” means >0.40 and ≤0.50.

T1 sequence (P01009 25-418 E366K): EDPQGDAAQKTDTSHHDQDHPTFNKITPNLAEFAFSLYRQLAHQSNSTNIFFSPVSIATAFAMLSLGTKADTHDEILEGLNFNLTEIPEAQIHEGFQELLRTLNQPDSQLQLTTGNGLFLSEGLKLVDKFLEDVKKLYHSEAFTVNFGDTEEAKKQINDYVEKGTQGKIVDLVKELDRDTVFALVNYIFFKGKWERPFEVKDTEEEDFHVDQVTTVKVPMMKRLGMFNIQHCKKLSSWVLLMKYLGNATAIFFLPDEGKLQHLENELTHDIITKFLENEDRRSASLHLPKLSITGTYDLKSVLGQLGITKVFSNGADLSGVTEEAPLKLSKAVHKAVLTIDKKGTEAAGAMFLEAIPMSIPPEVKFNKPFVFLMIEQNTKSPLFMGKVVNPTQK

Compound Quality	SMILES
++ (“++” means >0.30 and ≤0.40)	CC[C@](O)(COC)c1c(-c2ccc(C(=O)O)cc2)c2c(F)c3[nH]ncc3cc2n1-c1ccc(F)c(F)c1 [Compound 6]
+++ (“+++” means >0.20 and ≤0.30)	CC[C@](O)(COC)c1c(-c2ccc(C(=O)O)cc2)c2c(F)c3[nH]ncc3cc2n1-c1ccc(F)c(C)c1 [Compound 7]
+ (“+” means >0.40 and ≤0.50)	CC[C@](O)(COC)c1c(-c2ccc(C(=O)O)cc2)c2c(F)c3[nH]ncc3cc2n1-c1ccc(F)c(OC)c1 [Compound 8]
+++ (“+++” means >0.20 and ≤0.30)	CCOCC(O)(CC)c1c(-c2ccc(C(=O)O)cc2)c2c(F)c3[nH]ncc3cc2n1-c1ccc(F)c(OC)c1 (stereo not drawn) [Compound 9]
++ (“++” means >0.30 and ≤0.40)	[2H]C([2H])([2H])Oc1cc(-n2c([C@@](O)(CC)COC)c(-c3ccc(C(=O)O)cc3)c3c(F)c4[nH]ncc4cc32)ccc1F [Compound 10]
+++ (“+++” means >0.20 and ≤0.30)	CCOCC(O)(CC)c1c(-c2ccc(C(=O)O)cc2)c2c(F)c3[nH]ncc3cc2n1-c1ccc(F)c(F)c1 (stereo not drawn) [Compound 11]
+++ (“+++” means >0.20 and ≤0.30)	[2H]C([2H])([2H])C([2H])([2H])C(O)(COC)c1c(-c2ccc(C(=O)O)cc2)c2c(F)c3[nH]ncc3cc2n1-c1ccc(F)c(Cl)c1 (stereo not drawn) [Compound 12]
+++ (“+++” means >0.20 and ≤0.30)	CCC(O)(COC(C)C)c1c(-c2ccc(C(=O)O)cc2)c2c(F)c3[nH]ncc3cc2n1-c1ccc(F)c(OC)c1 (stereo not drawn) [Compound 13]
++ (“++” means >0.30 and ≤0.40)	CCOCC(O)(c1c(-c2ccc(C(=O)O)cc2)c2c(F)c3[nH]ncc3cc2n1-c1ccc(F)cc1)C1CC1 (stereo not drawn) [Compound 14]
++ (“++” means >0.30 and ≤0.40)	CC[C@@](O)(COC)c1c(-c2ccc(C(=O)O)cc2)c2c(F)c3[nH]ncc3cc2n1-c1cccc(F)c1 [Compound 15]
++ (“++” means >0.30 and ≤0.40)	CC[C@@](O)(COC)c1c(-c2ccc(C(=O)O)cc2)c2c(F)c3[nH]ncc3cc2n1-c1cc(F)c(F)c(OC)c1 [Compound 16]
+++ (“+++” means >0.20 and ≤0.30)	CCC(O)(COC)c1c(-c2ccc(C(=O)O)c(C)c2)c2c(F)c3[nH]ncc3cc2n1-c1ccc(F)c(F)c1 (stereo not drawn) [Compound 17]
+++ (“+++” means >0.20 and ≤0.30)	[2H]C([2H])([2H])C([2H])([2H])C(O)(COC)c1c(-c2ccc(C(=O)O)cc2)c2c(F)c3[nH]ncc3cc2n1-c1ccc(F)cc1 (stereo not drawn) [Compound 18]
+++ (“+++” means >0.20 and ≤0.30)	[2H]C([2H])([2H])C([2H])([2H])C(O)(COC)c1c(-c2ccc(C(=O)O)cc2)c2c(F)c3[nH]ncc3cc2n1-c1ccc(F)c(C)c1 (stereo not drawn) [Compound 19]
++ (“++” means >0.30 and ≤0.40)	[2H]C([2H])([2H])C([2H])([2H])C(O)(COC)c1c(-c2ccc(C(=O)O)cc2)c2c(F)c3[nH]ncc3cc2n1-c1ccc(F)c(OC)c1 (stereo not drawn) [Compound 20]
++ (“++” means >0.30 and ≤0.40)	[2H]C([2H])([2H])C([2H])([2H])C(O)(COC)c1c(-c2ccc(C(=O)O)cc2)c2c(F)c3[nH]ncc3cc2n1-c1ccc(F)c(F)c1 (stereo not drawn) [Compound 21]
++++ (“++++” means ≤0.2)	[2H]C([2H])([2H])Oc1cc(-n2c(C3(O)CCCCC3OC)c(-c3ccc(C(=O)O)cc3)c3c(F)c4[nH]ncc4cc32)ccc1F (stereo not drawn) [Compound 22]
+++ (“+++” means >0.20 and ≤0.30)	COC1CCCCC1(O)c1c(-c2ccc(C(=O)O)cc2)c2c(F)c3[nH]ncc3cc2n1-c1ccc(F)c(F)c1 (stereo not drawn) [Compound 23]
+++ (“+++” means >0.20 and ≤0.30)	COc1cc(-n2c(C3(O)CCCCC3OC)c(-c3ccc(C(=O)O)cc3)c3c(F)c4[nH]ncc4cc32)ccc1F (stereo not drawn) [Compound 24]
+++ (“+++” means >0.20 and ≤0.30)	COC1CCCCC1(O)c1c(-c2ccc(C(=O)O)cc2)c2c(F)c3[nH]ncc3cc2n1-c1cccc(F)c1 (stereo not drawn) [Compound 25]
++++ (“++++” means ≤0.2)	COC1CCCCC1(O)c1c(-c2ccc(C(=O)O)cc2)c2c(F)c3[nH]ncc3cc2n1-c1ccc(F)cc1 (stereo not drawn) [Compound 26]
++ (“++” means >0.30 and ≤0.40)	COC1CCCC1(O)c1c(-c2ccc(C(=O)O)cc2)c2c(F)c3[nH]ncc3cc2n1-c1ccc(F)cc1 (stereo not drawn) [Compound 27]
+++ (“+++” means >0.20 and ≤0.30)	COC1CCCC1(O)c1c(-c2ccc(C(=O)O)cc2)c2c(F)c3[nH]ncc3cc2n1-c1ccc(F)c(F)c1 (stereo not drawn) [Compound 28]

Compound Quality	SMILES
++++ (“++++” means ≤0.2)	[2H]C1([2H])C([2H])([2H])C([2H])([2H])[C@](O)(c2c(-c3ccc(C(=O)O)cc3)c3c(F)c4[nH]ncc4cc3n2-c2ccc(F)cc2)[C@@]([2H])(OC)C1([2H])[2H] [Compound 29]
++++ (“++++” means ≤0.2)	[2H]C1([2H])C([2H])([2H])C([2H])([2H])[C@](O)(c2c(-c3ccc(C(=O)O)cc3)c3c(F)c4[nH]ncc4cc3n2-c2ccc(F)c(OC)c2)[C@@]([2H])(OC)C1([2H])[2H] [Compound 30]
++ (“++” means >0.30 and ≤0.40)	[2H]C([2H])([2H])Oc1cc(-n2c([C@@]3(O)C([2H])([2H])C([2H])([2H])C([2H])([2H])C([2H])([2H])[C@]3([2H])OC)c(-c3ccc(C(=O)O)cc3)c3c(F)c4[nH]ncc4cc32)ccc1F [Compound 31]
+++ (“+++” means >0.20 and ≤0.30)	[2H]C([2H])([2H])Oc1cc(-n2c(C3(O)C([2H])([2H])C([2H])([2H])C([2H])([2H])C([2H])([2H])C3([2H])OC([2H])([2H])[2H])c(-c3ccc(C(=O)O)cc3)c3c(F)c4[nH]ncc4cc32)ccc1F (stereo not drawn) [Compound 32]
+++ (“+++” means >0.20 and ≤0.30)	[2H]C([2H])([2H])OCC(O)(CC)c1c(-c2ccc(C(=O)O)cc2)c2c(F)c3[nH]ncc3cc2n1-c1ccc(F)c(F)c1 (stereo not drawn) [Compound 33]
++++ (“++++” means ≤0.2)	[2H]C([2H])([2H])C([2H])([2H])C(O)(COC)c1c(-c2ccc(C(=O)O)cc2)c2c(F)c3[nH]ncc3cc2n1-c1ccc(F)c(F)c1 (stereo not drawn) [Compound 34]
++++ (“++++” means ≤0.2)	CCC(O)(COC)c1c(-c2ccc(C(=O)O)c(C)c2)c2c(F)c3[nH]ncc3cc2n1-c1ccc(F)cc1 (stereo not drawn) [Compound 35]
+++ (“+++” means >0.20 and ≤0.30)	CCC(O)(COC)c1c(-c2ccc(C(=O)O)c(C)c2)c2c(F)c3[nH]ncc3cc2n1-c1ccc(F)c(Cl)c1 (stereo not drawn) [Compound 36]
+++ (“+++” means >0.20 and ≤0.30)	[2H]C([2H])([2H])C([2H])([2H])C(O)(COC)c1c(-c2ccc(C(=O)O)cc2)c2c(F)c3[nH]ncc3cc2n1-c1ccc(F)cc1 (stereo not drawn) [Compound 37]
+++ (“+++” means >0.20 and ≤0.30)	[2H]C([2H])([2H])C([2H])([2H])C(O)(COC)c1c(-c2ccc(C(=O)O)cc2)c2c(F)c3[nH]ncc3cc2n1-c1ccc(F)c(C)c1 (stereo not drawn) [Compound 38]
+++ (“+++” means >0.20 and ≤0.30)	CCC(O)(COC)c1c(-c2ccc(C(=O)O)c(C)c2)c2c(F)c3[nH]ncc3cc2n1-c1ccc(F)c(F)c1 (stereo not drawn) [Compound 39]
+++ (“+++” means >0.20 and ≤0.30)	CCC(O)(COC)c1c(-c2ccc(C(=O)O)c(C)c2)c2c(F)c3[nH]ncc3cc2n1-c1ccc(F)c(OC)c1 (stereo not drawn) [Compound 40]
+ (“+” means >0.40 and ≤0.50)	CCC(O)(CCOC)c1c(-c2ccc(C(=O)O)cc2)c2c(F)c3[nH]ncc3cc2n1-c1ccc(F)cc1 (stereo not drawn) [Compound 41]
++ (“++” means >0.30 and ≤0.40)	CC[C@@](O)(COC)c1c(-c2ccc(C(=O)O)cc2)c2c(F)c3[nH]ncc3cc2n1-c1cc(C)c(F)c(F)c1 [Compound 42]
+ (“+” means >0.40 and ≤0.50)	COC1CCCC1(O)c1c(-c2ccc(C(=O)O)cc2)c2c(F)c3[nH]ncc3cc2n1-c1ccc(F)c(C)c1 (stereo not drawn) [Compound 43]
+ (“+” means >0.40 and ≤0.50)	CCC(O)(COC)c1c(-c2ccc(C(=O)O)c(C)c2)c2c(F)c3[nH]ncc3cc2n1-c1cccc(F)c1 (stereo not drawn) [Compound 44]
+++ (“+++” means >0.20 and ≤0.30)	[2H]C([2H])([2H])OCC(O)(CC)c1c(-c2ccc(C(=O)O)cc2)c2c(F)c3[nH]ncc3cc2n1-c1ccc(F)c(OC([2H])([2H])[2H])c1 (stereo not drawn) [Compound 45]
+++ (“+++” means >0.20 and ≤0.30)	[2H]C([2H])([2H])Oc1cc(-n2c(C(O)(COC)C([2H])([2H])C([2H])([2H])[2H])c(-c3ccc(C(=O)O)cc3)c3c(F)c4[nH]ncc4cc32)ccc1F (stereo not drawn) [Compound 46]
+++ (“+++” means >0.20 and ≤0.30)	[2H]C([2H])([2H])C([2H])([2H])C(O)(COC)c1c(-c2ccc(C(=O)O)cc2)c2c(F)c3[nH]ncc3cc2n1-c1ccc(F)c(OC)c1 (stereo not drawn) [Compound 47]
+ (“+” means >0.40 and ≤0.50)	CCc1cc(-c2c(C(O)(CC)COC)n(-c3ccc(F)c(F)c3)c3cc4cn[nH]c4c(F)c23)ccc1C(=O)O (stereo not drawn) [Compound 48]
++ (“++” means >0.30 and ≤0.40)	CCc1cc(-c2c(C(O)(CC)COC)n(-c3ccc(F)c(OC)c3)c3cc4cn[nH]c4c(F)c23)ccc1C(=O)O (stereo not drawn) [Compound 49]
++ (“++” means >0.30 and ≤0.40)	[2H]C([2H])([2H])Oc1cc(-n2c(C(O)(CC)COC)c(-c3ccc(C(=O)O)c(C)c3)c3c(F)c4[nH]ncc4cc32)ccc1F (stereo not drawn) [Compound 50]
